In brackets after ≈: the same amount, converted by molar mass.
How the values were obtained:
Type in all cases: functional
[1] = tested on: Streptococcus pyogenes; test: Antibacterial activity against erythromycin-susceptible Streptococcus pyogenes 1 after 24 hrs by broth dilution assay; conditions: Streptococcus pyogenes, 1, 24 h
[2] = tested on: Staphylococcus aureus; test: Antibacterial activity against erythromycin-susceptible Staphylococcus aureus ATCC 25923 after 24 hrs by broth dilution assay; conditions: ATCC 25923, 24 h
[3] = tested on: Escherichia coli; test: Antibacterial activity against penicillin-susceptible Escherichia coli ATCC 25922 after 24 hrs by broth dilution assay; conditions: ATCC 25922, 24 h
[4] = tested on: Bacillus subtilis; test: Antibacterial activity against penicillin-susceptible Bacillus subtilis ATCC 9372 after 24 hrs by broth dilution assay; conditions: ATCC 9372, 24 h
[5] = tested on: Streptococcus pneumoniae; test: Antibacterial activity against erythromycin-resistant Streptococcus pneumoniae B1 expressing ermB gene after 24 hrs by broth dilution assay; conditions: B1, 24 h
[6] = tested on: Streptococcus pneumoniae; test: Antibacterial activity against erythromycin-resistant Streptococcus pneumoniae A22072 expressing mefA gene after 24 hrs by broth dilution assay; conditions: A22072, 24 h
[7] = tested on: Staphylococcus aureus; test: Antibacterial activity against […] Staphylococcus aureus ATCC 29213 after 24 hrs by broth dilution assay; conditions: ATCC 29213, 24 h
[8] = tested on: Staphylococcus aureus; test: Antibacterial activity against penicillin-resistant Staphylococcus aureus ATCC 31007 after 24 hrs by broth dilution assay; conditions: ATCC 31007, 24 h
[9] = tested on: Pseudomonas aeruginosa; test: Antibacterial activity against penicillin-susceptible Pseudomonas aeruginosa ATCC 27853 after 24 hrs by broth dilution assay; conditions: ATCC 27853, 24 h
[10] = tested on: Streptococcus pneumoniae; test: Antibacterial activity against erythromycin-resistant Streptococcus pneumoniae AB11 expressing ermB and mefA genes after 24 hrs by broth dilution assay; conditions: AB11, 24 h
[11] = tested on: Streptococcus pyogenes; test: Antibacterial activity against erythromycin-resistant Streptococcus pyogenes 2 after 24 hrs by broth dilution assay; conditions: Streptococcus pyogenes, 2, 24 h

For `CC[C@H]1OC(=O)[C@H](C)[C@@H](OC(=O)NCc2ccc(N)cc2)[C@H](C)[C@@H](O[C@@H]2O[C@H](C)C[C@H](N(C)C)[C@H]2O)[C@](C)(OC)C[C@@H](C)/C(=N/OCc2ccccc2Cl)[C@H](C)[C@@H](O)[C@]1(C)O`, the MIC [1] was 1 µg/mL (≈ 1.14 µM), the MIC [2] was 16 µg/mL (≈ 18.2 µM) and the MIC [3] was 128 µg/mL (≈ 146 µM). The MIC [4] was 4 µg/mL (≈ 4.56 µM), the MIC [5] was 128 µg/mL (≈ 146 µM) and the MIC [6] was 0.5 µg/mL (≈ 0.57 µM). The MIC [7] was 128 µg/mL (≈ 146 µM), the MIC [8] was 16 µg/mL (≈ 18.2 µM) and the MIC [9] was 128 µg/mL (≈ 146 µM). For the same compound, the MIC [10] was 128 µg/mL (≈ 146 µM) and the MIC [11] was 16 µg/mL (≈ 18.2 µM).

For `CC[C@H]1OC(=O)[C@H](C)[C@@H](OC(=O)NCCc2ccccc2)[C@H](C)[C@@H](O[C@@H]2O[C@H](C)C[C@H](N(C)C)[C@H]2O)[C@](C)(OC)C[C@@H](C)/C(=N/OCc2ccccc2Cl)[C@H](C)[C@@H](O)[C@]1(C)O`, the MIC [1] was 8 µg/mL (≈ 9.13 µM), the MIC [2] was 16 µg/mL (≈ 18.3 µM) and the MIC [3] was 128 µg/mL (≈ 146 µM). For the same compound, the MIC [4] was 8 µg/mL (≈ 9.13 µM), the MIC [5] was 128 µg/mL (≈ 146 µM) and the MIC [6] was 2 µg/mL (≈ 2.28 µM). For the same compound, the MIC [7] was 128 µg/mL (≈ 146 µM), the MIC [8] was 8 µg/mL (≈ 9.13 µM) and the MIC [9] was 128 µg/mL (≈ 146 µM). It also gave an MIC [10] of 128 µg/mL (≈ 146 µM) and an MIC [11] of 16 µg/mL (≈ 18.3 µM).

`CC[C@H]1OC(=O)[C@H](C)[C@@H](OC(=O)NCCc2cccc(OC)c2)[C@H](C)[C@@H](O[C@@H]2O[C@H](C)C[C@H](N(C)C)[C@H]2O)[C@](C)(OC)C[C@@H](C)/C(=N/OCc2ccccc2Cl)[C@H](C)[C@@H](O)[C@]1(C)O` was tested, and the MIC [1] was 2 µg/mL (≈ 2.21 µM), the MIC [2] was 8 µg/mL (≈ 8.82 µM) and the MIC [3] was 128 µg/mL (≈ 141 µM). For the same compound, the MIC [4] was 4 µg/mL (≈ 4.41 µM), the MIC [5] was 128 µg/mL (≈ 141 µM) and the MIC [6] was 1 µg/mL (≈ 1.1 µM). The MIC [7] was 128 µg/mL (≈ 141 µM), the MIC [8] was 4 µg/mL (≈ 4.41 µM) and the MIC [9] was 128 µg/mL (≈ 141 µM). For the same compound, the MIC [10] was 128 µg/mL (≈ 141 µM) and the MIC [11] was 8 µg/mL (≈ 8.82 µM).

For `CC[C@H]1OC(=O)[C@H](C)[C@@H](OC(=O)NCc2ccccc2OC)[C@H](C)[C@@H](O[C@@H]2O[C@H](C)C[C@H](N(C)C)[C@H]2O)[C@](C)(OC)C[C@@H](C)/C(=N/OCc2ccccc2Cl)[C@H](C)[C@@H](O)[C@]1(C)O`, the MIC [1] was 4 µg/mL (≈ 4.48 µM), the MIC [2] was 16 µg/mL (≈ 17.9 µM) and the MIC [3] was 128 µg/mL (≈ 143 µM). For the same compound, the MIC [4] was 4 µg/mL (≈ 4.48 µM), the MIC [5] was 128 µg/mL (≈ 143 µM) and the MIC [6] was 1 µg/mL (≈ 1.12 µM). For the same compound, the MIC [7] was 128 µg/mL (≈ 143 µM), the MIC [8] was 4 µg/mL (≈ 4.48 µM) and the MIC [9] was 128 µg/mL (≈ 143 µM). The MIC [10] was 128 µg/mL (≈ 143 µM) and the MIC [11] was 16 µg/mL (≈ 17.9 µM).

Work on `CC[C@H]1OC(=O)[C@H](C)[C@@H](OC(=O)NCc2ccc(C)cc2)[C@H](C)[C@@H](O[C@@H]2O[C@H](C)C[C@H](N(C)C)[C@H]2O)[C@](C)(OC)C[C@@H](C)/C(=N/OCc2ccccc2Cl)[C@H](C)[C@@H](O)[C@]1(C)O` yielded an MIC [1] of 2 µg/mL (≈ 2.28 µM), an MIC [2] of 8 µg/mL (≈ 9.13 µM) and an MIC [3] of 128 µg/mL (≈ 146 µM). For the same compound, the MIC [4] was 2 µg/mL (≈ 2.28 µM), the MIC [5] was 128 µg/mL (≈ 146 µM) and the MIC [6] was 1 µg/mL (≈ 1.14 µM). The MIC [7] was 128 µg/mL (≈ 146 µM), the MIC [8] was 4 µg/mL (≈ 4.56 µM) and the MIC [9] was 128 µg/mL (≈ 146 µM). For the same compound, the MIC [10] was 128 µg/mL (≈ 146 µM) and the MIC [11] was 16 µg/mL (≈ 18.3 µM).

`CC[C@H]1OC(=O)[C@H](C)[C@@H](OC(=O)NCc2ccc(F)cc2)[C@H](C)[C@@H](O[C@@H]2O[C@H](C)C[C@H](N(C)C)[C@H]2O)[C@](C)(OC)C[C@@H](C)/C(=N/OCc2ccccc2Cl)[C@H](C)[C@@H](O)[C@]1(C)O` gave an MIC [1] of 2 µg/mL (≈ 2.27 µM), an MIC [2] of 4 µg/mL (≈ 4.54 µM) and an MIC [3] of 128 µg/mL (≈ 145 µM). For the same compound, the MIC [4] was 2 µg/mL (≈ 2.27 µM), the MIC [5] was 128 µg/mL (≈ 145 µM) and the MIC [6] was 1 µg/mL (≈ 1.14 µM). It also gave an MIC [7] of 128 µg/mL (≈ 145 µM), an MIC [8] of 4 µg/mL (≈ 4.54 µM) and an MIC [9] of 128 µg/mL (≈ 145 µM). For the same compound, the MIC [10] was 128 µg/mL (≈ 145 µM) and the MIC [11] was 8 µg/mL (≈ 9.09 µM).

Work on `CC[C@H]1OC(=O)[C@H](C)[C@@H](OC(=O)NCCc2ccc(OC)c(OC)c2)[C@H](C)[C@@H](O[C@@H]2O[C@H](C)C[C@H](N(C)C)[C@H]2O)[C@](C)(OC)C[C@@H](C)/C(=N/OCc2ccccc2Cl)[C@H](C)[C@@H](O)[C@]1(C)O` yielded an MIC [1] of 1 µg/mL (≈ 1.07 µM), an MIC [2] of 8 µg/mL (≈ 8.54 µM) and an MIC [3] of 128 µg/mL (≈ 137 µM). For the same compound, the MIC [4] was 4 µg/mL (≈ 4.27 µM), the MIC [5] was 128 µg/mL (≈ 137 µM) and the MIC [6] was 1 µg/mL (≈ 1.07 µM). It also gave an MIC [7] of 128 µg/mL (≈ 137 µM), an MIC [8] of 8 µg/mL (≈ 8.54 µM) and an MIC [9] of 128 µg/mL (≈ 137 µM). It also gave an MIC [10] of 128 µg/mL (≈ 137 µM) and an MIC [11] of 16 µg/mL (≈ 17.1 µM).

With `CCCCCCNC(=O)O[C@H]1[C@H](C)[C@@H](O[C@@H]2O[C@H](C)C[C@H](N(C)C)[C@H]2O)[C@](C)(OC)C[C@@H](C)/C(=N/OCc2ccccc2Cl)[C@H](C)[C@@H](O)[C@](C)(O)[C@@H](CC)OC(=O)[C@@H]1C` the MIC [1] was 2 µg/mL (≈ 2.33 µM), the MIC [2] was 16 µg/mL (≈ 18.7 µM) and the MIC [3] was 128 µg/mL (≈ 149 µM). For the same compound, the MIC [4] was 2 µg/mL (≈ 2.33 µM), the MIC [5] was 128 µg/mL (≈ 149 µM) and the MIC [6] was 1 µg/mL (≈ 1.17 µM). The MIC [7] was 128 µg/mL (≈ 149 µM), the MIC [8] was 4 µg/mL (≈ 4.67 µM) and the MIC [9] was 128 µg/mL (≈ 149 µM). The MIC [10] was 128 µg/mL (≈ 149 µM) and the MIC [11] was 8 µg/mL (≈ 9.34 µM).

`C#CCNC(=O)O[C@H]1[C@H](C)[C@@H](O[C@@H]2O[C@H](C)C[C@H](N(C)C)[C@H]2O)[C@](C)(OC)C[C@@H](C)/C(=N/OCc2ccccc2Cl)[C@H](C)[C@@H](O)[C@](C)(O)[C@@H](CC)OC(=O)[C@@H]1C` gave an MIC [1] of 4 µg/mL (≈ 4.94 µM), an MIC [3] of 128 µg/mL (≈ 158 µM) and an MIC [4] of 2 µg/mL (≈ 2.47 µM). The MIC [9] was 128 µg/mL (≈ 158 µM).
